Assay results as given in patent publication US11155557B2, “Pyrazolopyrimidine compounds and methods of use thereof” (Genentech, Inc., priority 2016, dated 2021).

What was measured:
[1] = biological target: isolated recombinant JAK1 kinase domain (Homo sapiens (Human), UniProt P23458); assay: JAK1 enzyme assay (Caliper LabChip, Ki); type: biochemical
Procedure: The activity of the isolated recombinant JAK1 and JAK2 kinase domain was measured by monitoring phosphorylation of a peptide derived from JAK3 ([…] fluorescently labeled on the N-terminus with 5-carboxyfluorescein) using the Caliper LabChip R technology (Caliper Life Sciences, Hopkinton, Mass.).

[2] = test system: JAK1-dependent STAT6 phosphorylation in BEAS-2B human bronchial epithelial cells; assay: JAK1 pathway assay: IL-13 stimulated STAT6 phosphorylation in BEAS-2B cells; type: cell-based; conditions: Homo sapiens, BEAS-2B, BEAS-2B cells, IL-13 stimulation; read-out: IL-13 p-STAT6 BEAS-2B IC50
Method in brief: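 BEAS-2B bronchial epithelial cells plated one day before, run in complete growth medium. Phospho-STAT6 in lysates measured by MesoScale Discovery; EC50 reported.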

[3] = biological target: isolated recombinant JAK2 kinase domain (Homo sapiens (Human), UniProt O60674); assay: JAK2 enzyme assay (Caliper LabChip, Ki); conditions: read-out: JAK2 Ki
Chain of isolated recombinant JAK2 kinase domain (O60674 849-1124): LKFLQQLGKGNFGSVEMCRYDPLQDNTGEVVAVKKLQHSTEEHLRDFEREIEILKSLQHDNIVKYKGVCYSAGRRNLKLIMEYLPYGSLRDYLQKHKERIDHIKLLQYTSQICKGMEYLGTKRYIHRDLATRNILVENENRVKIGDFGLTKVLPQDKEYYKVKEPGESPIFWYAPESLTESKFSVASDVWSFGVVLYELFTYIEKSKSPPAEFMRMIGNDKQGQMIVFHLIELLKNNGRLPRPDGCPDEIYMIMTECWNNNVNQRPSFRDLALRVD

Chain of isolated recombinant JAK1 kinase domain (P23458 875-1153): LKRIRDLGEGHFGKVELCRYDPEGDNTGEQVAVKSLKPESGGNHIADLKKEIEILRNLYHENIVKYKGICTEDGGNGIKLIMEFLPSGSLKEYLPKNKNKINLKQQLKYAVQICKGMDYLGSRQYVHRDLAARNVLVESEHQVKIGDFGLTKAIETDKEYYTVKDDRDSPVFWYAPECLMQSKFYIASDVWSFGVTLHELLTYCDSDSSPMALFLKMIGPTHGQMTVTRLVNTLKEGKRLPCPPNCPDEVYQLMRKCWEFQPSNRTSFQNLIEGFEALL

Row | SMILES | Ki [1] [nM] | IC50 [2] [nM] | Ki [3] [nM]
1 | COc1cc2ccsc2cc1-c1n[nH]cc1NC(=O)c1cnn2cccnc12 [Example 35, N-[3-(5-methoxybenzothiophen-6-yl)-1H-pyrazol-4-yl]pyrazolo[1,5-a]pyrimidine-3-carboxamide] | 0.28 | 3 | 0.11
2 | CCOC(=O)c1cc2cc(-c3n[nH]cc3NC(=O)c3cnn4cccnc34)c(OC)cc2s1 [Example 36, ethyl 6-methoxy-5-[4-(pyrazolo[1,5-a]pyrimidine-3-carbonylamino)-1H-pyrazol-3-yl]benzothiophene-2-carboxylate] | 0.65 | 32 | 0.49
3 | CC1CNc2cc(OC(F)F)c(-c3n[nH]cc3NC(=O)c3cnn4cccnc34)cc2S1 (stereo not drawn) [Example 37, N-[3-[6-(difluoromethoxy)-2-methyl-3,4-dihydro-2H-1,4-benzothiazin-7-yl]-1H-pyrazol-4-yl]pyrazolo[1,5-a]pyrimidine-3-carboxamide] | 0.07 | 5 | 0.05
4 | CC1Sc2cc(-c3n[nH]cc3NC(=O)c3cnn4cccnc34)c(OC(F)F)cc2NC1=O (stereo not drawn) [Example 39, N-[3-[6-(difluoromethoxy)-2-methyl-3-oxo-4H-1,4-benzothiazin-7-yl]-1H-pyrazol-4-yl]pyrazolo[1,5-a]pyrimidine-3-carboxamide] | 0.06 | 71 | 0.05
5 | O=C1COc2cc(-c3n[nH]cc3NC(=O)c3cnn4cccnc34)c(OC(F)F)cc2N1 [Example 40, N-[3-[6-(difluoromethoxy)-3-oxo-4H-1,4-benzoxazin-7-yl]-1H-pyrazol-4-yl]pyrazolo[1,5-a]pyrimidine-3-carboxamide] | 0.09 | 67 | 0.06
6 | C[C@H]1COc2cc(-c3n[nH]cc3NC(=O)c3cnn4cccnc34)c(OC(F)F)cc2N1 [Example 42, N-[3-[(3S)-6-(difluoromethoxy)-3-methyl-3,4-dihydro-2H-1,4-benzoxazin-7-yl]-1H-pyrazol-4-yl]pyrazolo[1,5-a]pyrimidine-3-carboxamide] | 0.44 | 34 | 0.25
7 | C[C@@H]1COc2cc(-c3n[nH]cc3NC(=O)c3cnn4cccnc34)c(OC(F)F)cc2N1 [Example 43, N-[3-[(3R)-6-(difluoromethoxy)-3-methyl-3,4-dihydro-2H-1,4-benzoxazin-7-yl]-1H-pyrazol-4-yl]pyrazolo[1,5-a]pyrimidine-3-carboxamide] | 0.25 | 12 | 0.17
8 | O=C(Nc1cn(CC(=O)N2CCC(CN3CCOCC3)CC2)nc1-c1cc2c(cc1OC(F)F)NCCO2)c1cnn2cccnc12 [Example 44, N-[3-[6-(difluoromethoxy)-3,4-dihydro-2H-1,4-benzoxazin-7-yl]-1-[2-[4-(morpholinomethyl)-1-piperidyl]-2-oxo-ethyl]pyrazol-4-yl]pyrazolo[1,5-a]pyrimidine-3-carboxamide] | 0.34 | 45 | 0.51
9 | C[C@H]1CNc2cc(OC(F)F)c(-c3nn(CC(=O)N4CCC(CN5CCOCC5)CC4)cc3NC(=O)c3cnn4cccnc34)cc2S1 [Example 45, N-[1-[2-[4-(morpholinomethyl)-1-piperidyl]-2-oxo-ethyl]-3-[(2S)-6-(difluoromethoxy)-2-methyl-3,4-dihydro-2H-1,4-benzothiazin-7-yl]pyrazol-4-yl]pyrazolo[1,5-a]pyrimidine-3-carboxamide] | 0.22 | 29 | 0.24
10 | C[C@@H]1CNc2cc(OC(F)F)c(-c3nn(CC(=O)N4CCC(CN5CCOCC5)CC4)cc3NC(=O)c3cnn4cccnc34)cc2S1 [Example 46, N-[1-[2-[4-(morpholinomethyl)-1-piperidyl]-2-oxo-ethyl]-3-[(2R)-6-(difluoromethoxy)-2-methyl-3,4-dihydro-2H-1,4-benzothiazin-7-yl]pyrazol-4-yl]pyrazolo[1,5-a]pyrimidine-3-carboxamide] | 0.25 | 31 | 0.31
